Here are results for 4 compounds from patent US10112890B2, “Compound, salt of compound, external agent for skin, cosmetic, and food additive” (SHOWA DENKO K.K., priority 2015, dated 2018).

The subject of the data set is three-dimensionally cultured human skin model ("EPI-606X"). The experiment in a line: Skin permeability test. The conditions noted are these: 24 hours; for Permeability (%): permeability into the skin model, 0.2% by mass sample solution in PBS (-), pH 7.4, 700 μL, 37° C., skin model extract plus receiver liquid, HPLC, (A/1400)×100; for permeability compared with compound (9)-101 / permeability compared with sodium pantothenate: skin model, comparison in words. In kind it is in vitro ADME. The source says:
The compound (1)-301, the compound (1)-302, the compound (9)-101, and sodium pantothenate (manufactured by Tokyo Kasei Kogyo Co., Ltd., the compound represented by the following formula) were respectively dissolved in Dubecco's PBS (−), and the pH of a solution was adjusted to 7.4 using a sodium hydroxide aqueous solution or hydrochloric acid, to obtain a solution having a concentration of 0.2% by mass as a sample solution. A three-dimensionally cultured human skin model (“EPI-606X”, manufactured by KURABO INDUSTRIES LTD.) was set such that the lower portion thereof was immersed in a 6-well plate containing the PBS solution (1 mL), and was allowed to stand in an incubator for 30 minutes under conditions of 37° C. at a carbon dioxide concentration of 5%. Next, the PBS solution was replaced with an HBSS (−) solution (1 mL) (hereinafter, referred to as a “receiver liquid”), the sample solution (700 μL) obtained in the above-described manner was added to the skin model, and the skin model was allowed to stand in an incubator under conditions of 37° C. at a carbon dioxide concentration of 5%. After the skin model was allowed to stand for 24 hours, the sample solution on the skin model was removed using a pipette, the skin model was taken out from the well and washed with the PBS (−) solution. Subsequently, a slice was cut from the skin model and put into a 2 mL tube. Methanol (1 mL) and stainless steel beads (manufactured by Tomy Company, Ltd., diameter of 5.5 mm) were added to the tube, and the slice was crushed under conditions of 2000 rpm for 10 seconds ten times using MULTI BEADS SHOCKER (manufactured by Yasui Kikai Corporation). After the slice was crushed, the obtained solution was transferred to a 2 mL Eppendorf tube and centrifuged at 12000 rpm for 5 minutes, the supernatant was filtered using a filter (pore size of 0.22 μm), thereby obtaining a skin model extract. Next, the compound (1)-301, the compound (1)-302, the compound (9)-101, and sodium pantothenate in the skin model extract and the receiver liquid were quantified by analyzing each of the compounds (test substances) using HPLC described above, and a total value A (μg) of these quantitative values was calculated. Further, the permeability into the skin model (%) of each of the compound (1)-301 (Example 1), the compound (1)-302 (Example 2), the compound (9)-101 (Reference Example 1), and sodium pantothenate (Comparative Example 1) added to the skin model was calculated according to Equation (i). Permeability (%)=(A/1400)×100 (i)

Take `CCCCCCCCCCCCCCCC(=O)OCC(C)(C)C(O)C(=O)NCCC(=O)O` (stereo not drawn) [Compound (1)-301, 3-[N-(4-hexadecanoyloxy-3,3-dimethyl-2-hydroxybutyryl)amino]propionic acid]: the “Permeability (%)” value is listed as 41 ± 4.7%, the “permeability compared with compound (9)-101” value is listed as “clearly higher permeability” and the “permeability compared with sodium pantothenate” value was “clearly higher permeability”.
As to `CCCCCCCCC(CCCCCC)C(=O)OCC(C)(C)C(O)C(=O)NCCC(=O)O` (stereo not drawn) [Compound (1)-302, 3-[N-(4-(2-hexyldecanoyl)oxy-3,3-dimethyl-2-hydroxybutyryl)amino]propionic acid], the “Permeability (%)” value was 44 ± 2.7%, the “permeability compared with compound (9)-101” value is “clearly higher permeability” and the “permeability compared with sodium pantothenate” value is recorded as “clearly higher permeability”.
As for `CCCCCCCCCC(=O)OCC(C)(C)C(O)C(=O)NCCC(=O)O` (stereo not drawn) [Compound (9)-101, 3-[N-(4-decanoyloxy-3,3-dimethyl-2-hydroxybutyryl)amino]propionic acid, reference compound], the “Permeability (%)” value stood at 29 ± 0.8% and the “permeability compared with sodium pantothenate” value is listed as “clearly higher permeability”.
Consider `CC(C)(CO)[C@@H](O)C(=O)NCCC(=O)[O-].[Na+]` [Sodium pantothenate, sodium pantothenate, reference compound], for which the “Permeability (%)” value worked out at 18 ± 0.4%.
